# From patent US20070191402A1, “Method of searching substrate having antidiabetic activity” (KYOWA HAKKO KOGYO CO., LTD., priority 2002, published 2007)
# What was measured:
# MIN6 cell = assay: Insulin secretion test using MIN6 cell; assay type: cell-based, murine; conditions: MIN6 cell; glucose 14.5 mmol/l or 8.4 mmol/l
# Procedure: Culturing MIN6 cell and testing insulin secretion using MIN6 cell were carried out according to the method described in Diabetorogia, 36, 1139-1145 (1993).
# In other words, the influence of a compound on the insulin secretion activity in the presence of 14.5 mmol/l glucose was assessed by assaying the amount of insulin in the cell culture supernatant collected as follows.
# The MIN6 cell cultured in a 24-well plate was washed twice with 1 ml of buffer A [119 mmol/l NaCl, 4.74 mmol/l KCl, 2.54 mmol/l CaCl2, 1.19 mmol/l MgSO4, 1.19 mmol/l KH2PO4, 10 mmol/l 2-[4-(2-hydroxylethyl)-1-piperadinyl]ethanesulfonic acid, 0.1% BSA, pH 7.3] containing 2 mmol/l glucose. Subsequently, the resulting cell was incubated in 1 ml of the buffer A containing 2 mmol/l glucose at 37° C. for 45 minutes. The culture supernatant was exchanged with the buffer A (1 ml) containing test compounds of various concentrations and 8.4 mmol/l glucose and incubated at 37° C. for 45 minutes to collect the culture supernatant.
# Antibody-reactive insulin secreted in the culture supernatant was assayed by radioimmunoassay [Methods in Investigative and Diagnostic Endocrinology, Vol. 2A, 2B, North-Holland Publishing Co., Amsterdam (1973)] after the culture supernatant was diluted with phosphate buffer containing 1% BSA, 0.1% Tween 20, 0.12% EDTA 2Na, and 0.1% sodium azide. A standard curve was prepared by using human insulin as the standard substance, and individual insulin values were calculated on the basis of the curve.
# p31 protein = biological target: T1, p31 protein (Mus musculus, UniProt Q99LB2); assay: Inhibition of binding of p31 protein from MIN6 solubilized membrane fraction to Compound 155-immobilized particle (SDS-PAGE); conditions: 500 μmol/l tested substance, band on SDS-PAGE
# T1 construct: endogenous in cells; host or cells: MIN6 (murine pancreatic beta cell line), digitonin-solubilized membrane fraction
# T1 sequence (Q99LB2 20-279 limits assumed): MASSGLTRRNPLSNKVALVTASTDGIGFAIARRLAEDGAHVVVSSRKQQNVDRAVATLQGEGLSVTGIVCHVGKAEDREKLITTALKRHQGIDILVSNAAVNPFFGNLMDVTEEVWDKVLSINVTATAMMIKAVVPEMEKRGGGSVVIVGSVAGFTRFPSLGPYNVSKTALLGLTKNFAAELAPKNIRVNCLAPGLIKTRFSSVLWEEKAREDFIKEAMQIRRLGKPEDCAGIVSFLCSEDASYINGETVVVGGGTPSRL
# Procedure: The solubilized membrane fraction of MIN6 as prepared in Example 12 was 10-fold diluted with the buffer B. The compound represented by Compound No. 16 (hereinafter referred to as “Compound 16”) at 500 μmol/l was added to 1 ml of the resulting dilution and gently stirred at 4° C. for 2 hours. As a control, the solubilized membrane fraction of MIN6 without addition of the Compound 16 was 10-fold diluted with buffer C [20 mmol/l HEPES, pH 7.4, 2 mmol/l EDTA, 150 mmol/l NaCl, 1% digitonin, 1 mmol/l PMSF, 1 μg/ml aprotinin], and 1 ml of the resulting dilution was gently stirred at 4° C. for 2 hours. Then, a particle immobilizing a compound represented by Compound No. 155 (hereinafter referred to as “Compound 155-immobilized particle”) as prepared in Example 8 was added to the solubilized membrane fraction solution with addition of the Compound 16 and the solubilized membrane fraction solution without addition of any tested substance and gently stirred at 4° C. for 30 minutes. Subsequently, the resulting solutions were centrifuged (12,000 rpm, one minute, 4° C.) to precipitate the particle to thereby remove the supernatants. Then, 750 μl of the buffer C was added and stirred for 3 seconds, followed by centrifugation (12,000 rpm, one minute, 4° C.), to precipitate the particle to remove the supernatant. Then, 750 μl of buffer D [20 mmol/l HEPES, pH 7.4, 2 mmol/l EDTA] was added and stirred for 3 seconds, followed by centrifugation (12,000 rpm, one minute, 4° C.), to precipitate the particle to remove the supernatant. Subsequently, 30 μl of an SDS-polyacrylamide gel electrophoresis sample buffer containing β-mercaptoethanol was added to solubilize the protein binding to Compound 155-immobilized particle, followed by SDS-polyacrylamide gel electrophoresis. Through the purification from the cell extract solution by adding Compound 16 via Compound 155-immobilized particle, p31 protein in which its specific binding to Compound 155-immobilized particle was inhibited by the compound represented by Compound No. 16 was found. […]
# His-p31 protein = biological target: T2, His-p31 protein (Mus musculus, UniProt Q99LB2); assay: Enzyme activity inhibition of His-p31 protein (NADPH decrease, p-chlorobenzaldehyde); assay type: biochemical; conditions: p-chlorobenzaldehyde 250 μmol/l, NADPH 5 μmol/l, 37° C., absorbance at 340 nm
# T2 construct: a gene part encoding the full-length p31 protein was prepared by polymerase chain reaction (PCR); made in house; host or cells: Escherichia coli BL21 / pET-14b-p31
# T2 sequence (Q99LB2 20-279 limits assumed): T1 sequence (Q99LB2 20-279 limits assumed)
# Procedure: NADPH was added to 1 ml of a solution of 10 mmol/Tris-HCl, 100 mmol/l NaCl and 2 mmol/l EDTA, pH 7.4 containing the His-p31 protein prepared in Example 12 at 1 μg/ml and p-chlorobenzaldehyde at 250 μmol/l to give a final concentration of 5 μmol/l and incubated at 37° C. Then, the NADPH decrease following the decomposition of p-chlorobenzaldehyde in the presence or absence of a tested substance was detected at the absorbance at 340 nm.
compound,measurement,setting,value
CCCN1C(=O)N2C[C@@H](Cc3ccccc3)N=C2c2[nH]c(C3CCCC3)nc21 [compound 16],Insulin secretory activity (%),MIN6 cell,83.2%
same,inhibition of the binding of the p31 protein to the Compound 155-immobilized particle,p31 protein,inhibits the binding of the p31 protein
same,inhibition of the binding of the p31 protein to the Compound 155-immobilized particle,p31 protein; listed as Compound No. 16,inhibited
same,enzyme activity inhibition of the His-p31 protein,His-p31 protein,strongly inhibited the activity of the protein
